Measurements reported in patent publication US20030186943A1, “Substituted gamma-phenyl-delta-lactams and uses related thereto” (Inflazyme Pharmaceuticals Ltd., priority 1998, published 2003).
Where two headings read alike, the source gives them in different places.

Experiments:
[1] = system: cAMP response element luciferase activity in human U937 monocytic cells; assay: Potentiation of forskolin-induced CRE-luciferase activity in U937 cells; type: cell-based; details: U-937, U937 cells co-incubated with 10 μM forskolin, 4 hours, X marks this range
Method in brief: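 U937 cells electroporated with PCRE-luc reporter, recovered 16-18 h, then exposed to compound or vehicle with or without 10 μM forskolin for 4 h at 37 °C. Cell lysates read for luciferase luminescence.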

[2] = system: primary human neutrophils; assay: Generation of reactive oxygen species by fMLP-activated neutrophils (luminol-enhanced chemiluminescence); type: cell-based; details: Neutrophil
Method in brief: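 Fresh primary human neutrophils (5×10^6 cells/mL) preincubated 30 min at 37° C with compound in Ca^2+-containing HBSS pH 7.4, then stimulated with 1 μM fMLP in presence of 1 μM luminol. Chemiluminescence integrated over 30 min; IC50 from non-linear regression versus 0.25% DMSO control.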

[3] = target: T1, cAMP phosphodiesterase 3 from human platelets (Homo sapiens, UniProt Q14432); assay: Inhibition of cAMP phosphodiesterase 3 from human platelets; type: biochemical; details: for inhibition at 100 µM: PDE3
T1 construct: from tissue; host or cells: human platelets, cytoplasmic extract
T1 sequence (Q14432 whole entry): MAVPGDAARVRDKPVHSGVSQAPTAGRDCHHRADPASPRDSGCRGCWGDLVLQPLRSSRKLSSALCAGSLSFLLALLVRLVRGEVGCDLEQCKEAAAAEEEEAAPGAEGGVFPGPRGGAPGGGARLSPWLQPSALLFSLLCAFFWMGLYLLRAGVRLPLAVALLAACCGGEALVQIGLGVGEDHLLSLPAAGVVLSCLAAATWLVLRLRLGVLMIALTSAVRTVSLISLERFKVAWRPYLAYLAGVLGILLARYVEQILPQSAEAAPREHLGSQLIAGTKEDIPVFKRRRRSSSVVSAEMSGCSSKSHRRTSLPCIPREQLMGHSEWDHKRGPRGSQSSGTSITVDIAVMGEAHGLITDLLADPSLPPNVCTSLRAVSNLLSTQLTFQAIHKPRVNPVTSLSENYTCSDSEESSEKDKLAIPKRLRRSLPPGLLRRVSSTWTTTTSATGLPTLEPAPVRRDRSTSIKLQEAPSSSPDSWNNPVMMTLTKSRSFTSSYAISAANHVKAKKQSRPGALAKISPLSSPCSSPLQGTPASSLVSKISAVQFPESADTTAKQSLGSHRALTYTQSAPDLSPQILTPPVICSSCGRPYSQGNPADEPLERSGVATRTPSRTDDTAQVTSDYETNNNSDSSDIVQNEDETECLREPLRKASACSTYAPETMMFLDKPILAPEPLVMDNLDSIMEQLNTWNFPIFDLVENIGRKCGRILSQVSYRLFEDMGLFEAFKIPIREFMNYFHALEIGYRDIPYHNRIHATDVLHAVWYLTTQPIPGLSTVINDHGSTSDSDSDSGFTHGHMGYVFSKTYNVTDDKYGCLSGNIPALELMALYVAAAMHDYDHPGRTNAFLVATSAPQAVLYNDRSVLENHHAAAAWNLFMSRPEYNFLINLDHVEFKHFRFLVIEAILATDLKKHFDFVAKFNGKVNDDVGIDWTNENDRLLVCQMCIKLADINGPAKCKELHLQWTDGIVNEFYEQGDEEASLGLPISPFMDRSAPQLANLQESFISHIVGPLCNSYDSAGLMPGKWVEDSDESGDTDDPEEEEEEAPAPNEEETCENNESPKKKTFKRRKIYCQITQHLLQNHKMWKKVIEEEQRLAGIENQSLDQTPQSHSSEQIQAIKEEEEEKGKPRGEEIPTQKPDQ
Method in brief: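 Partially purified human platelet extract used as PDE3 source with cAMP as substrate, so cGMP-preferring PDE2 and PDE5 present in platelets go undetected. IBMX served as positive control.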

[4] = read-out: IC50 RANGE (μM) <1, ROS production, X marks this range
[5] = ROS production, X marks this range, read-out: IC50 RANGE (μM) 1-10
[6] = PDE3, platelet cell extract, X marks this range, read-out: IC50 range (μM) 10-100
[7] = read-out: EC50 range (μM) 0.1-1
[8] = PDE3, platelet cell extract, X marks this range, read-out: IC50 range (μM) 1-10

Row | Compound | EC50 ([1]; read-out: EC50 range (μM) 1-25) [µM] | IC50 [2, 4] [µM] | IC50 [2, 5] [µM] | IC50 [3, 8] [µM] | other results
1 | COc1cc(C[C@@H]2CC(c3ccc(OC)c(OC)c3)COC2=O)ccc1O (mixture of isomers) [Compound 12] | 1 to 25 | < 1 |  |  | IC50 ([3]; human platelets, read-out: IC50 PDE 3): 45 µM; inhibition at 100 µM ([3]; read-out: % inhibition by 100 μM test compound 50-75, X marks this range): 50 to 75%
2 | COc1cc(C[C@@H]2C[C@@H](c3ccc(OC)c(OC)c3)COC2=O)ccc1O [Compound 30] | 1 to 25 |  | 1 to 10 |  | IC50 [3, 6]: 10 to 100 µM
3 | COc1ccc([C@@H]2CCC(=O)OC2)cc1OC1CCCC1 [Compound 41] |  | < 1 |  |  | EC50 [1, 7]: 0.1 to 1 µM; IC50 ([3]; PDE3, platelet cell extract, X marks this range): > 100 µM; inhibition at 100 µM ([3]; read-out: % inhibition by 100 μM test compound 25-50, X marks this range): 25 to 50%
4 | COc1cc(CC2C[C@@H](c3ccc(OC)c(OC4CCCC4)c3)COC2=O)ccc1O (stereo partly shown) [Compound 43] |  | < 1 |  |  | EC50 [1, 7]: 0.1 to 1 µM; IC50 [3, 6]: 10 to 100 µM; inhibition at 100 µM ([3]; read-out: % inhibition by 100 μM test compound 75-100, X marks this range): 75 to 100%
5 | COc1ccc([C@H]2CNC(=O)C(Cc3ccc(OCc4ccccc4)c(OC)c3)C2)cc1OC (stereo partly shown) [Compound 54] | 1 to 25 |  | 1 to 10 | 1 to 10 | 
6 | COc1cc(CC2C[C@@H](c3ccc(OC)c(OC)c3)CNC2=O)ccc1O (stereo partly shown) [Compound 55] | 1 to 25 |  | 1 to 10 | 1 to 10 | 
7 | COc1cc(CC2C[C@@H](c3ccc(OC)c(OC4CCCC4)c3)CNC2=O)ccc1O (stereo partly shown) [Compound 62] | 1 to 25 |  |  | 1 to 10 | IC50 ([2]; ROS production, X marks this range, read-out: IC50 RANGE (μM) 10-100): 10 to 100 µM
8 | COc1ccc(C2CNC(=O)C2)cc1OC1CCCC1 (stereo not shown) [Rolipram, reference compound] |  |  |  |  | effect in PDE3 assay ([3]; platelet cell extract, cAMP as substrate): without effect
